The record followed here is US8519128B2, “Pyripyropene derivatives having an ACAT2-inhibiting activity” (The Kitasato Institute, priority 2007, dated 2013).

As usually defined, the IC50 is the concentration at which inhibition is half-maximal. A low value points to greater potency.

For this assay, the target named is T1, ACAT 2 (Mus musculus, UniProt O88908).
T1 construct: The source of ACAT 2 enzyme used was a membrane fraction derived from mouse liver microsome; from tissue; host or cells: mouse liver (microsome fraction)
T1 sequence (O88908 1-525): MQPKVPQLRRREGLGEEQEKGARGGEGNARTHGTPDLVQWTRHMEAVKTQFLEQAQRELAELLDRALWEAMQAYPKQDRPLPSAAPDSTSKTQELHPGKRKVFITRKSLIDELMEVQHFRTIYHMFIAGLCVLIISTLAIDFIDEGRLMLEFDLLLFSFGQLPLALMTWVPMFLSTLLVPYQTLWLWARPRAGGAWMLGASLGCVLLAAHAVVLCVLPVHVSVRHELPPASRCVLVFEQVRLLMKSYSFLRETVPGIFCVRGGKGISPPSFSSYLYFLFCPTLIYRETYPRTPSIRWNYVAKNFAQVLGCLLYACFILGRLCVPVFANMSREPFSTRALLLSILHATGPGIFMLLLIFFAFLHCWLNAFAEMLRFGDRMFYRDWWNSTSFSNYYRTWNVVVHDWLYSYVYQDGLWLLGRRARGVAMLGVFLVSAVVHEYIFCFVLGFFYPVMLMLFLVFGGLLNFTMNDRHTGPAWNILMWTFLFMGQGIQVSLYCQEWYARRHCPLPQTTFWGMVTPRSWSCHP
Description: ACAT-inhibiting activity, mouse liver microsome membrane fraction, [14C]oleoyl-CoA. In kind it is biochemical. To be noted: for IC50: mouse liver microsome, 5 minutes at 37° C. On the procedure:
The source of ACAT 2 enzyme used was a membrane fraction derived from mouse liver microsome. Mouse liver was homogenized in buffer solution A (50 mM Tris-HCl (pH 7.8), 1 mM ethylenediamine tetraacetate, and 1 mM phenylmethanesulfonyl fluoride) using a homogenizer of the Potter type (Tokyo-RIKO). The homogenate was centrifuged at 12000×g, and the supernatant was ultracentrifuged at 100000×g. The sediment was taken as a microsome fraction, and this fraction was adjusted to have a protein concentration of 5 mg/ml using buffer solution A.
The chloroform layer was evaporated to dryness and was used to spot a thin layer chromatography plate (silica gel plate, Merck, 0.5 mm thickness). Elution for separation was carried out using a solvent of hexane/diethyl ether/acetic acid (70:30:1, v/v).
In general terms: Liver microsomes are a subcellular fraction often used to study metabolism.

SMILES strings stand for the structures.

As to `CC(=O)OCC1(C)C2C[C@H](OC(=O)c3cccc(F)c3)[C@@]3(C)Oc4cc(-c5cccnc5)oc(=O)c4[C@H](O)C3[C@@]2(C)CC[C@@H]1OC(C)=O` (stereo partly shown) [PRD 024, 7-m-fluorobenzoyl-7-deacetylpyripyropene A], the IC50 was < 10 nM. Moreover, where the note is “relative to pyripyropene A”, the “Specific activity relative to pyripyropene A (numeric)” value was ≥ 100 and the “Specific activity: (inhibitory activity of test compound)/(inhibitory activity of pyripyropene A)” value was “+++++ (specific activity > 100)”.

As to `CCc1ccc(C(=O)O[C@H]2CC3C(C)(COC(C)=O)[C@@H](OC(C)=O)CC[C@]3(C)C3[C@@H](O)c4c(cc(-c5cccnc5)oc4=O)O[C@@]32C)cc1` (stereo partly shown) [PRD 025, 7-p-ethylbenzoyl-7-deacetylpyripyropene A], the “Specific activity: (inhibitory activity of test compound)/(inhibitory activity of pyripyropene A)” value (relative to pyripyropene A) is “++++ (100 > specific activity > 50)”.

In the case of `CC(=O)OCC1(C)C2C[C@H](OC(=O)c3cccc(Br)c3)[C@@]3(C)Oc4cc(-c5cccnc5)oc(=O)c4[C@H](O)C3[C@@]2(C)CC[C@@H]1OC(C)=O` (stereo partly shown) [PRD 026, 7-m-bromobenzoyl-7-deacetylpyripyropene A], the IC50 is < 10 nM. For the same compound, the “Specific activity: (inhibitory activity of test compound)/(inhibitory activity of pyripyropene A)” value (relative to pyripyropene A) is listed as “++++ (100 > specific activity > 50)”.

As to `CC(=O)OCC1(C)C2C[C@H](OC(=O)c3ccccc3)[C@@]3(C)Oc4cc(-c5cccnc5)oc(=O)c4[C@H](O)C3[C@@]2(C)CC[C@@H]1OC(C)=O` (stereo partly shown) [PRD 027, 7-benzoyl-7-deacetylpyripyropene A], the IC50 lay in the range of 10 to 100 nM. Further, the “Specific activity: (inhibitory activity of test compound)/(inhibitory activity of pyripyropene A)” value (relative to pyripyropene A) is on record as “+++ (50 > specific activity > 10)”.

Regarding `CC(=O)OCC1(C)C2C[C@H](OC(=O)c3ccccc3F)[C@@]3(C)Oc4cc(-c5cccnc5)oc(=O)c4[C@H](O)C3[C@@]2(C)CC[C@@H]1OC(C)=O` (stereo partly shown) [PRD 028, 7-o-fluorobenzoyl-7-deacetylpyripyropene A], the IC50 lay in the range of 10 to 100 nM. Further, under “relative to pyripyropene A”, the “Specific activity: (inhibitory activity of test compound)/(inhibitory activity of pyripyropene A)” value was “+++ (50 > specific activity > 10)”.

As to `CC(=O)OCC1(C)C2C[C@H](OC(=O)c3ccc([N+](=O)[O-])cc3)[C@@]3(C)Oc4cc(-c5cccnc5)oc(=O)c4[C@H](O)C3[C@@]2(C)CC[C@@H]1OC(C)=O` (stereo partly shown) [PRD 029, 7-p-nitrobenzoyl-7-deacetylpyripyropene A], the IC50 is 10 to 100 nM. For the same compound, the “Specific activity: (inhibitory activity of test compound)/(inhibitory activity of pyripyropene A)” value (relative to pyripyropene A) is recorded as “+ (5 > specific activity > 1)”.

As for `CC(=O)OCC1(C)C2C[C@H](OC(=O)c3ccc(N=[N+]=[N-])cc3)[C@@]3(C)Oc4cc(-c5cccnc5)oc(=O)c4[C@H](O)C3[C@@]2(C)CC[C@@H]1OC(C)=O` (stereo partly shown) [PRD 030, 7-O-p-azidebenzoyl-7-deacetylpyripyropene A], the half-inhibitory concentration (IC50) lay within 10 to 100 nM. Further, the “Specific activity: (inhibitory activity of test compound)/(inhibitory activity of pyripyropene A)” value (relative to pyripyropene A) is given as “++ (10 > specific activity > 5)”.

Compound `CC(=O)OCC1(C)C2C[C@H](OC(=O)c3ccc(O)cc3)[C@@]3(C)Oc4cc(-c5cccnc5)oc(=O)c4[C@H](O)C3[C@@]2(C)CC[C@@H]1OC(C)=O` (stereo partly shown) [PRD 031, 7-p-hydroxybenzoyl-7-deacetylpyripyropene A] displayed an IC50 of 100 to 1000 nM. For the same compound, under “relative to pyripyropene A”, the “Specific activity: (inhibitory activity of test compound)/(inhibitory activity of pyripyropene A)” value is given as “+ (5 > specific activity > 1)”.

For `CC(=O)OCC1(C)C2C[C@H](OC(=O)c3ccc(N)cc3)[C@@]3(C)Oc4cc(-c5cccnc5)oc(=O)c4[C@H](O)C3[C@@]2(C)CC[C@@H]1OC(C)=O` (stereo partly shown) [PRD 032, 7-p-aminobenzoyl-7-deacetylpyripyropene A], the IC50 lay in the range of 100 to 1000 nM. The “Specific activity: (inhibitory activity of test compound)/(inhibitory activity of pyripyropene A)” value (relative to pyripyropene A) is given as “+ (5 > specific activity > 1)”.

The compound `CC(=O)OCC1(C)C2C[C@H](OC(=O)c3ccc(-c4ccccc4)cc3)[C@@]3(C)Oc4cc(-c5cccnc5)oc(=O)c4[C@H](O)C3[C@@]2(C)CC[C@@H]1OC(C)=O` (stereo partly shown) [PRD 034, 7-p-biphenyl-4-carboxyl-7-deacetylpyripyropene A] returned a half-inhibitory concentration (IC50) of 100 to 1000 nM. In addition, the “Specific activity: (inhibitory activity of test compound)/(inhibitory activity of pyripyropene A)” value (relative to pyripyropene A) is reported as “+ (5 > specific activity > 1)”.

For `CC(=O)OCC1(C)C2C[C@H](OC(=O)c3cc4ccccc4s3)[C@@]3(C)Oc4cc(-c5cccnc5)oc(=O)c4[C@H](O)C3[C@@]2(C)CC[C@@H]1OC(C)=O` (stereo partly shown) [PRD 035, 7-benzo[b]thiophene-2-carboxyl-7-deacetylpyripyropene A], the IC50 is 100 to 1000 nM. Moreover, the “Specific activity: (inhibitory activity of test compound)/(inhibitory activity of pyripyropene A)” value (relative to pyripyropene A) was “+ (5 > specific activity > 1)”.

`CC(=O)OCC1(C)C2C[C@H](OC(=O)c3ccc4c(c3)OC(F)(F)O4)[C@@]3(C)Oc4cc(-c5cccnc5)oc(=O)c4[C@H](O)C3[C@@]2(C)CC[C@@H]1OC(C)=O` (stereo partly shown) [PRD 036, 7-2,2-difluorobenzo[d][1,3]dioxol-5-carboxyl-7-deacetylpyripyropene A] had an IC50 of 10 to 100 nM. In addition, the “Specific activity: (inhibitory activity of test compound)/(inhibitory activity of pyripyropene A)” value (relative to pyripyropene A) is reported as “++ (10 > specific activity > 5)”.

For the compound `CC(=O)OCC1(C)C2C[C@H](OC(=O)c3ccc4ccccc4c3)[C@@]3(C)Oc4cc(-c5cccnc5)oc(=O)c4[C@H](O)C3[C@@]2(C)CC[C@@H]1OC(C)=O` (stereo partly shown) [PRD 037, 7-2-naphthoyl-7-deacetylpyripyropene A], the IC50 lay within 100 to 1000 nM. Further, where the note is “relative to pyripyropene A”, the “Specific activity: (inhibitory activity of test compound)/(inhibitory activity of pyripyropene A)” value is reported as “+ (5 > specific activity > 1)”.

As for `CC(=O)OCC1(C)C2C[C@H](OC(=O)c3cccc4ccccc34)[C@@]3(C)Oc4cc(-c5cccnc5)oc(=O)c4[C@H](O)C3[C@@]2(C)CC[C@@H]1OC(C)=O` (stereo partly shown) [PRD 038, 7-1-naphthoyl-7-deacetylpyripyropene A], the IC50 fell in the range of 10 to 100 nM. Moreover, the “Specific activity: (inhibitory activity of test compound)/(inhibitory activity of pyripyropene A)” value (relative to pyripyropene A) is “++ (10 > specific activity > 5)”.

As for `CC12COC(c3ccccc3)O[C@H]1CC[C@@]1(C)C2C[C@H](OC(=O)c2ccccc2C#N)[C@@]2(C)Oc3cc(-c4cccnc4)oc(=O)c3[C@H](O)C12` (stereo partly shown) [PRD 039, 1,11-O-benzylidene-7-O-o-cyanobenzoyl-1,7,11-trideacetylpyripyropene A], the “Specific activity: (inhibitory activity of test compound)/(inhibitory activity of pyripyropene A)” value (relative to pyripyropene A) is recorded as “+++ (50 > specific activity > 10)”.

Compound `CC12COC(c3ccccc3)O[C@H]1CC[C@@]1(C)C2C[C@H](OC(=O)c2cccc(C#N)c2)[C@@]2(C)Oc3cc(-c4cccnc4)oc(=O)c3[C@H](O)C12` (stereo partly shown) [PRD 040, 1,11-O-benzylidene-7-O-m-cyanobenzoyl-1,7,11-trideacetylpyripyropene A] returned an IC50 of 10 to 100 nM. Also, the “Specific activity: (inhibitory activity of test compound)/(inhibitory activity of pyripyropene A)” value (relative to pyripyropene A) is listed as “+++ (50 > specific activity > 10)”.

The compound `COc1ccccc1C(=O)O[C@H]1CC2C3(C)COC(c4ccccc4)O[C@H]3CC[C@]2(C)C2[C@@H](O)c3c(cc(-c4cccnc4)oc3=O)O[C@@]21C` (stereo partly shown) [PRD 042, 1,11-O-benzylidene-7-O-o-methoxybenzoyl-1,7,11-trideacetylpyripyropene A] registered an IC50 of 10 to 100 nM. The “Specific activity: (inhibitory activity of test compound)/(inhibitory activity of pyripyropene A)” value (relative to pyripyropene A) was “+++ (50 > specific activity > 10)”.

The compound `COc1cccc(C(=O)O[C@H]2CC3C4(C)COC(c5ccccc5)O[C@H]4CC[C@]3(C)C3[C@@H](O)c4c(cc(-c5cccnc5)oc4=O)O[C@@]32C)c1` (stereo partly shown) [PRD 043, 1,11-O-benzylidene-7-O-m-methoxybenzoyl-1,7,11-trideacetylpyripyropene A] registered an IC50 of 10 to 100 nM. Moreover, the “Specific activity: (inhibitory activity of test compound)/(inhibitory activity of pyripyropene A)” value (relative to pyripyropene A) is “+++ (50 > specific activity > 10)”.

The compound `COc1ccc(C(=O)O[C@H]2CC3C4(C)COC(c5ccccc5)O[C@H]4CC[C@]3(C)C3[C@@H](O)c4c(cc(-c5cccnc5)oc4=O)O[C@@]32C)cc1` (stereo partly shown) [PRD 044, 1,11-O-benzylidene-7-O-p-methoxybenzoyl-1,7,11-trideacetylpyripyropene A] yielded an IC50 of 10 to 100 nM. Besides, for the setting “relative to pyripyropene A”, the “Specific activity: (inhibitory activity of test compound)/(inhibitory activity of pyripyropene A)” value is on record as “+++ (50 > specific activity > 10)”.

`CC12COC(c3ccccc3)O[C@H]1CC[C@@]1(C)C2C[C@H](OC(=O)c2ccc([N+](=O)[O-])cc2)[C@@]2(C)Oc3cc(-c4cccnc4)oc(=O)c3[C@H](O)C12` (stereo partly shown) [PRD 045, 1,11-O-benzylidene-7-O-p-nitrobenzoyl-1,7,11-trideacetylpyripyropene A] gave an IC50 of 10 to 100 nM. Also, the “Specific activity: (inhibitory activity of test compound)/(inhibitory activity of pyripyropene A)” value (relative to pyripyropene A) is “++ (10 > specific activity > 5)”.

With `CC12COC(c3ccccc3)O[C@H]1CC[C@@]1(C)C2C[C@H](OC(=O)c2ccccc2F)[C@@]2(C)Oc3cc(-c4cccnc4)oc(=O)c3[C@H](O)C12` (stereo partly shown) [PRD 046, 1,11-O-benzylidene-7-O-o-fluorobenzoyl-1,7,11-trideacetylpyripyropene A], the IC50 lay in the range of 10 to 100 nM. In addition, the “Specific activity: (inhibitory activity of test compound)/(inhibitory activity of pyripyropene A)” value (relative to pyripyropene A) is reported as “+++ (50 > specific activity > 10)”.

Take `CC12COC(c3ccccc3)O[C@H]1CC[C@@]1(C)C2C[C@H](OC(=O)c2cccc(F)c2)[C@@]2(C)Oc3cc(-c4cccnc4)oc(=O)c3[C@H](O)C12` (stereo partly shown) [PRD 047, 1,11-O-benzylidene-7-O-m-fluorobenzoyl-1,7,11-trideacetylpyripyropene A]: the IC50 is 10 to 100 nM. For the same compound, for the setting “relative to pyripyropene A”, the “Specific activity: (inhibitory activity of test compound)/(inhibitory activity of pyripyropene A)” value is on record as “+++ (50 > specific activity > 10)”.
